As a reminder, the IC50 is the midpoint of a concentration-inhibition curve.

The source made the active and inactive calls. The calls are words filed in the database; no cut-off is given here.

Results on eleven compounds are retold here after ChEMBL document CHEMBL4382260, “Synthesis and biological evaluation as antiangiogenic agents of ureas derived from 3'-aminocombretastatin A-4” (Eur J Med Chem, 2019).

Test [1] deals with T1, Tubulin (Homo sapiens) (UniProt P68371+Q9H4B7+P0DPH7+P68366+Q13509+Q71U36+P04350+Q3ZCM7+P07437+P68363+Q9BQE3+Q6PEY2+Q13885+Q9BVA1+Q9BUF5). Put plainly: Disruption of microtubule network in human A549 cells assessed as compressed and fragmented nuclei at […] after 16 hrs by Hoechst staining based immunofluorescence microscopic method. The format is cell-based.
The next test deals with HL-60. Briefly: Antiproliferative activity against human HL60 cells by MTT assay. The format is functional, cell-based. For orientation: Tetrazolium assays rely on reduction of a dye to a coloured formazan, in cell work by metabolically active cells.
Test [2] has as its system A549. Briefly: Cell cycle arrest in human A549 cells assessed as accumulation at subG0 phase at 22 uM after 24 hrs by propidium iodide staining based flow cytometry (reference value: 2 +/- 0.8%). The test is classed as functional. Background: In flow cytometry, cells or beads pass a laser one at a time.
The test system of test [3] is A549. Put plainly: Cell cycle arrest in human A549 cells assessed as accumulation at G0/G1 phase at 22 uM after 24 hrs by propidium iodide staining based flow cytometry (reference value: 60 +/- 1%). The format is functional.
The subject of test [4] is A549. Put plainly: Cell cycle arrest in human A549 cells assessed as accumulation at S phase at 22 uM after 24 hrs by propidium iodide staining based flow cytometry (reference value: 28 +/- 0.6%). The test is classed as functional.
Test [5] concerns A549. Briefly: Cell cycle arrest in human A549 cells assessed as accumulation at G2/M phase at 22 uM after 24 hrs by propidium iodide staining based flow cytometry (reference value: 10 +/- 0.8%). The format is functional.
In test [6] the test system is A549. Put plainly: Induction of apoptosis in human A549 cells at 100 uM after 20 to 24 hrs by Annexin V-FITC/propidium iodide staining based flow cytometry (reference value: 16%). The test is classed as functional.
The subject of test [7] is A549. Put plainly: Induction of apoptosis in human A549 cells at 50 uM after 20 to 24 hrs by Annexin V-FITC/propidium iodide staining based flow cytometry (reference value: 16%). The format is functional.
The test system of the next test is HMEC-1. Briefly: Antiangiogenic activity against HMEC1 cells after 20 hrs by tube formation assay. The note with it: Homo sapiens, HMEC-1, 20 h.
Test [8] deals with T1, Tubulin (Homo sapiens). Put plainly: Disruption of microtubule network in human A549 cells assessed as compressed and fragmented nuclei at 18 uM after 16 hrs by Hoechst staining based immunofluorescence microscopic method. The test is classed as cell-based.
For test [9], the target named is Vascular endothelial growth factor receptor 2 (Homo sapiens) (UniProt P35968). Briefly: Inhibition of VEGFR2 internalization in HMEC1 cells assessed as membrane VEGFR2 level at 8 uM after 24 hrs by flow cytometry (reference value: 100%). The test is classed as cell-based. Also on record: scale not given: the % may be the effect or the level left.
Test [10] shares this target. Put plainly: Inhibition of VEGFR2 internalization in HMEC1 cells assessed as total VEGFR2 level at 8 uM after 24 hrs by flow cytometry (reference value: 100%). The format is cell-based. Also on record: scale not given: the % may be the effect or the level left.
Test [11] has the same target. Briefly: Inhibition of VEGFR2 internalization in HMEC1 cells at 8 uM after 24 hrs by immunofluorescence assay. The format is cell-based.
Test [12] has the same target. Briefly: Inhibition of VEGFR2 internalization in human A549 cells at 18 uM after 24 hrs by immunofluorescence assay. The format is cell-based.
Test [13] shares this target. Put plainly: Inhibition of VEGFR2 internalization in HMEC1 cells assessed as membrane VEGFR2 level at 15 uM after 24 hrs by flow cytometry (reference value: 100%). The format is cell-based. Also on record: scale not given: the % may be the effect or the level left.
Test [14] has the same target. Briefly: Inhibition of VEGFR2 internalization in HMEC1 cells assessed as total VEGFR2 level at 15 uM after 24 hrs by flow cytometry (reference value: 100%). The test is classed as cell-based. Also on record: scale not given: the % may be the effect or the level left.
The target is the same in test [15]. Briefly: Inhibition of VEGFR2 internalization in HMEC1 cells at 15 uM after 24 hrs by immunofluorescence assay. The format is cell-based.
Test [16] has the same target. Briefly: Inhibition of VEGFR2 internalization in human A549 cells at 44 uM after 24 hrs by immunofluorescence assay. The format is cell-based.
The target is the same in test [17]. Briefly: Inhibition of VEGFR2 internalization in HMEC1 cells assessed as membrane VEGFR2 level at […] after 24 hrs by flow cytometry (reference value: 100%). The test is classed as cell-based. Also on record: scale not given: the % may be the effect or the level left.
The target is the same in test [18]. Briefly: Inhibition of VEGFR2 internalization in HMEC1 cells assessed as total VEGFR2 level at […] after 24 hrs by flow cytometry (reference value: 100%). Also on record: scale not given: the % may be the effect or the level left. The test is classed as cell-based.
For test [19] the target is unchanged. Put plainly: Inhibition of VEGFR2 internalization in HMEC1 cells assessed as membrane VEGFR2 level at 120 uM after 24 hrs by flow cytometry (reference value: 100%). The test is classed as cell-based. Also on record: scale not given: the % may be the effect or the level left.
For test [20] the target is unchanged. Put plainly: Inhibition of VEGFR2 internalization in HMEC1 cells assessed as total VEGFR2 level at 120 uM after 24 hrs by flow cytometry (reference value: 100%). The format is cell-based. Also on record: scale not given: the % may be the effect or the level left.
The target is the same in test [21]. Put plainly: Inhibition of VEGFR2 internalization in HMEC1 cells at 120 uM after 24 hrs by immunofluorescence assay. The format is cell-based.
For test [22] the target is unchanged. Put plainly: Inhibition of VEGFR2 internalization in human A549 cells at 48 uM after 24 hrs by immunofluorescence assay. The format is cell-based.
Test [23] has the same target. Briefly: Inhibition of VEGFR2 internalization in HMEC1 cells assessed as membrane VEGFR2 level at 6 uM after 24 hrs by flow cytometry (reference value: 100%). The test is classed as cell-based. Also on record: scale not given: the % may be the effect or the level left.
For test [24] the target is unchanged. Briefly: Inhibition of VEGFR2 internalization in HMEC1 cells assessed as total VEGFR2 level at 6 uM after 24 hrs by flow cytometry (reference value: 100%). The format is cell-based. Also on record: scale not given: the % may be the effect or the level left.
Test [25] shares this target. Put plainly: Inhibition of VEGFR2 internalization in HMEC1 cells at 6 uM after 24 hrs by immunofluorescence assay. The format is cell-based.
Test [26] shares this target. Put plainly: Inhibition of VEGFR2 internalization in human A549 cells at […] after 24 hrs by immunofluorescence assay. The test is classed as cell-based.
For test [27] the target is unchanged. Briefly: Inhibition of VEGFR2 internalization in HMEC1 cells assessed as membrane VEGFR2 level at 0.6 uM after 24 hrs by flow cytometry (reference value: 100%). The format is cell-based. Also on record: scale not given: the % may be the effect or the level left.
For test [28] the target is unchanged. Briefly: Inhibition of VEGFR2 internalization in HMEC1 cells assessed as total VEGFR2 level at 0.6 uM after 24 hrs by flow cytometry (reference value: 100%). The format is cell-based. Also on record: scale not given: the % may be the effect or the level left.
Test [29] has the same target. Put plainly: Inhibition of VEGFR2 internalization in HMEC1 cells at 0.6 uM after 24 hrs by immunofluorescence assay. The format is cell-based.
Test [30] has as its system A549. Briefly: Cell cycle arrest in human A549 cells assessed as accumulation at subG0 phase at […] after 24 hrs by propidium iodide staining based flow cytometry (reference value: 2 +/- 0.8%). The test is classed as functional.
The test system of test [31] is A549. Briefly: Cell cycle arrest in human A549 cells assessed as accumulation at G0/G1 phase at […] after 24 hrs by propidium iodide staining based flow cytometry (reference value: 60 +/- 1%). The format is functional.
The subject of test [32] is A549. Briefly: Cell cycle arrest in human A549 cells assessed as accumulation at S phase at […] after 24 hrs by propidium iodide staining based flow cytometry (reference value: 28 +/- 0.6%). The test is classed as functional.
Test [33] relates to A549. Briefly: Cell cycle arrest in human A549 cells assessed as accumulation at G2/M phase at […] after 24 hrs by propidium iodide staining based flow cytometry (reference value: 10 +/- 0.8%). The format is functional.
Test [34] has as its target T1, Tubulin (Homo sapiens). Briefly: Disruption of microtubule network in human A549 cells assessed as compressed and fragmented nuclei at 28 uM after 16 hrs by Hoechst staining based immunofluorescence microscopic method. The format is cell-based.
Test [35] concerns the target Vascular endothelial growth factor receptor 2 (Homo sapiens) (UniProt P35968). Briefly: Inhibition of VEGFR2 internalization in HMEC1 cells assessed as membrane VEGFR2 level at 12 uM after 24 hrs by flow cytometry (reference value: 100%). Also on record: scale not given: the % may be the effect or the level left. The format is cell-based.
For test [36] the target is unchanged. Put plainly: Inhibition of VEGFR2 internalization in HMEC1 cells assessed as total VEGFR2 level at 12 uM after 24 hrs by flow cytometry (reference value: 100%). The format is cell-based. Also on record: scale not given: the % may be the effect or the level left.
Test [37] shares this target. Briefly: Inhibition of VEGFR2 internalization in HMEC1 cells at 12 uM after 24 hrs by immunofluorescence assay. The format is cell-based.
Test [38] shares this target. Briefly: Inhibition of VEGFR2 internalization in human A549 cells at 28 uM after 24 hrs by immunofluorescence assay. The format is cell-based.

Vascular endothelial growth factor receptor 2 (Homo sapiens), sequence (P35968 whole entry): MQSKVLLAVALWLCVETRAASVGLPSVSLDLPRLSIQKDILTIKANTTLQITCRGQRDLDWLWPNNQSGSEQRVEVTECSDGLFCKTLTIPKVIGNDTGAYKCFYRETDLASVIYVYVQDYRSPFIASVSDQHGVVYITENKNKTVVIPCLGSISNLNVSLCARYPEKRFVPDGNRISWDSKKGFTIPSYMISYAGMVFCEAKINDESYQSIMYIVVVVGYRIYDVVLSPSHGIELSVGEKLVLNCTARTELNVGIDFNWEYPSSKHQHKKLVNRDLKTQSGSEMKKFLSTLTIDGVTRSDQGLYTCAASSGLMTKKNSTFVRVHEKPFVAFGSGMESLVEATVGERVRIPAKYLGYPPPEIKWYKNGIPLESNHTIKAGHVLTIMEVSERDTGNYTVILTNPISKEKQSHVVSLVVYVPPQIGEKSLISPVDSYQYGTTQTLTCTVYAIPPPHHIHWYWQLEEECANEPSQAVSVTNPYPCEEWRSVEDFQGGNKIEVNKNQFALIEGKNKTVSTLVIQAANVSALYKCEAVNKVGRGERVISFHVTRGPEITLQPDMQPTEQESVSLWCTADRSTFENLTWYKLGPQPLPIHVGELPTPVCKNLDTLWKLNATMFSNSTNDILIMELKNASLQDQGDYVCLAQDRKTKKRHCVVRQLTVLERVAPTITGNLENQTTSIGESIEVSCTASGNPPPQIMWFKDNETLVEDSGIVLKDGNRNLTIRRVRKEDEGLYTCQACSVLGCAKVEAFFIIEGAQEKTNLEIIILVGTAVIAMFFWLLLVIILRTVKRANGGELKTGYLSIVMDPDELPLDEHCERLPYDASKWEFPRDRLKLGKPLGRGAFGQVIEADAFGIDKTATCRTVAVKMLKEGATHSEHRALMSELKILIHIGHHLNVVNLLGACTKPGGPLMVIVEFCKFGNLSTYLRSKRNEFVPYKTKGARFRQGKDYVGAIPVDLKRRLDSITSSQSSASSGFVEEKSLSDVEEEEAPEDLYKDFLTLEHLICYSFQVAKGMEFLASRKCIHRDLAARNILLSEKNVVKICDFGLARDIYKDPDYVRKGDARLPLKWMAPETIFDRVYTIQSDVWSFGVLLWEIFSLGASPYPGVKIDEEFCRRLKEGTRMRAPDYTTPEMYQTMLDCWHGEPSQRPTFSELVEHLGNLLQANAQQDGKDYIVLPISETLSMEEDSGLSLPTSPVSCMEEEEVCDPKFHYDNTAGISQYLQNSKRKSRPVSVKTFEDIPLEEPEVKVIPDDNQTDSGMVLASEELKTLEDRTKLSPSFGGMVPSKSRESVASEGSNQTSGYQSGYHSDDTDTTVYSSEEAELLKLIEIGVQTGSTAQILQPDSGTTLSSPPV

For the compound `COc1ccc(/C=C\c2cc(OC)c(OC)c(OC)c2)cc1NC(=O)Nc1cccc(Br)c1`, the outcome on Tubulin (Homo sapiens) [1] was Active.

Turning to `CCN(CC)CCNC(=O)c1c(C)[nH]c(/C=C2\C(=O)Nc3ccc(F)cc32)c1C` [SUNITINIB], the half-inhibitory concentration (IC50) in the test with HL-60 and in the test with HMEC-1 was 7 µM throughout. Moreover, the Activity in the test on A549 [2] amounted to 2.4%; in the test with A549 [3], 47%; in the test with A549 [4] it was 35%; in the test on A549 [5], 16%; in the test on A549 [6], 45%; with A549 [7], 38%.

Regarding `CNC(=O)c1cc(Oc2ccc(NC(=O)Nc3ccc(Cl)c(C(F)(F)F)c3)cc2)ccn1` [SORAFENIB], the results for the half-inhibitory concentration (IC50) in the test with HL-60 and in the test with HMEC-1 were 5 µM and 34 µM, respectively. Besides, the figures for the Activity with A549 [6] and with A549 [7] were 38% and 30%, respectively.

Consider `COc1ccc(/C=C\c2cc(OC)c(OC)c(OC)c2)cc1NC(=O)Nc1cccc(C)c1`, for which the outcome at Tubulin (Homo sapiens) [8] was Active. Moreover, the values for the Activity in [9] and in test [10] were 71% and 87%, respectively. Also, the inhibition result in [11] and in [12] was “Active” throughout.

Regarding `COc1ccc(/C=C\c2cc(OC)c(OC)c(OC)c2)cc1NC(=O)Nc1ccc(Cl)c(C)c1`, the Activity in test [13] stood at 80%; in test [14], 100%. Further, the inhibition result in test [15] and in test [16] was “Active” in each case.

Consider `COc1ccc(/C=C\c2cc(OC)c(OC)c(OC)c2)cc1NC(=O)Nc1cccc(Cl)c1C`, for which, at Tubulin (Homo sapiens) [1], the outcome was Active. The Activity is 71% in test [17] and 97% in test [18].

As to `COc1ccc(/C=C\c2cc(OC)c(OC)c(OC)c2)cc1NC(=O)Nc1cc(C)cc(C)c1`, the Activity worked out at 62% in [19] and 15% in test [20]. For the same compound, the inhibition result in [21] and in test [22] was “Active” throughout.

As to `COc1ccc(/C=C\c2cc(OC)c(OC)c(OC)c2)cc1NC(=O)Nc1ccccc1Cl`, the Activity in test [23] is 43%; in [24] it was 46%. In addition, the inhibition result in test [25] and in [26] was “Active” in each case.

Turning to `COc1ccc(/C=C\c2cc(OC)c(OC)c(OC)c2)cc1NC(=O)Nc1ccccc1Br`, the outcome on Tubulin (Homo sapiens) [1] was Active. For the same compound, the Activity amounted to 48% in test [27] and 80% in test [28]. The inhibition entry in test [29] and in test [26] was “Active” in each case.

As to `COc1ccc(/C=C\c2cc(OC)c(OC)c(OC)c2)cc1N`, the Activity came out at 14% with A549 [30]; 21% with A549 [31]; 24% in the test with A549 [32]; 41% in the test with A549 [33]; 52% in the test with A549 [6]; 32% with A549 [7].

For the compound `COc1ccc(/C=C\c2cc(OC)c(OC)c(OC)c2)cc1NC(=O)Nc1ccc(C)c(C)c1`, the outcome at Tubulin (Homo sapiens) [34] was Active. For the same compound, the Activity was 61% in test [35] and 148% in test [36]. Also, the inhibition entry in test [37] and in test [38] was “Active” each time.
